Assay results published in patent US20220104493A1, “HERBICIDAL COMPOUNDS” (SYNGENTA CROP PROTECTION AG, priority 2019, published 2022).

Tests used:
Assay in all cases: Post-emergence efficacy, Method A
Type in all cases: in vivo
[1] = test system: Digitaria sanguinalis (DIGSA); conditions: 500 g/Ha, 100=total damage to plant, 0=no damage, evaluated after 7 and 14 days, read-out: Control of weed species after post-emergence application, DIGSA
Setaria faberi (SETFA) = conditions: 500 g/Ha, 100=total damage to plant, 0=no damage, evaluated after 7 and 14 days, read-out: Control of weed species after post-emergence application, SETFA
[2] = test system: Echinochloa crus-galli (ECHCG); conditions: 500 g/Ha, 100=total damage to plant, 0=no damage, evaluated after 7 and 14 days, read-out: Control of weed species after post-emergence application, ECHCG
Lolium perenne (LOLPE) = conditions: 500 g/Ha, 100=total damage to plant, 0=no damage, evaluated after 7 and 14 days, read-out: Control of weed species after post-emergence application, LOLPE
[3] = test system: Ipomoea hederacea (IPOHE); conditions: 500 g/Ha, 100=total damage to plant, 0=no damage, evaluated after 7 and 14 days, read-out: Control of weed species after post-emergence application, IPOHE
[4] = test system: Amaranthus palmeri (AMAPA); conditions: 500 g/Ha, 100=total damage to plant, 0=no damage, evaluated after 7 and 14 days, read-out: Control of weed species after post-emergence application, AMAPA
Eleusine indica (ELEIN) = conditions: 500 g/Ha, 100=total damage to plant, 0=no damage, evaluated after 7 and 14 days, read-out: Control of weed species after post-emergence application, ELEIN
[5] = test system: Chenopodium album (CHEAL); conditions: 500 g/Ha, 100=total damage to plant, 0=no damage, evaluated after 7 and 14 days, read-out: Control of weed species after post-emergence application, CHEAL
[6] = test system: Euphorbia heterophylla (EPHHL); conditions: 500 g/Ha, 100=total damage to plant, 0=no damage, evaluated after 7 and 14 days, read-out: Control of weed species after post-emergence application, EPHHL

Row | Compound | pest or weed control at 500 g/ha [1] [%] | pest or weed control at 500 g/ha (Setaria faberi (SETFA)) [%] | pest or weed control at 500 g/ha [2] [%] | pest or weed control at 500 g/ha (Lolium perenne (LOLPE)) [%] | pest or weed control at 500 g/ha [3] [%] | pest or weed control at 500 g/ha [4] [%] | pest or weed control at 500 g/ha (Eleusine indica (ELEIN)) [%] | pest or weed control at 500 g/ha [5] [%] | pest or weed control at 500 g/ha [6] [%]
1 | O=S(=O)([O-])C[n+]1ccc(-c2cnns2)cc1 [Compound A3, [4-(thiadiazol-5-yl)pyridin-1-ium-1-yl]methanesulfonate] | 70 | 80 | 40 | 20 | 80 | 100 | 50 | 90 | 80
2 | O=S(=O)([O-])CC[n+]1ccc(-c2ncns2)cc1 [Compound A5, 2-[4-(1,2,4-thiadiazol-5-yl)pyridin-1-ium-1-yl]ethanesulfonate] | 70 | 60 | 40 | 70 | 70 | 100 | 80 | 90 | 100
3 | O=C(O)C[n+]1ccc(-c2ncns2)cc1 [Compound A6] | 70 | 80 | 90 | 30 | 80 | 100 | 90 | 100 | 100
4 | O=C(O)CC[n+]1ccc(-c2ncns2)cc1 [Compound A7, 3-[4-(1,2,4-thiadiazol-5-yl)pyridin-1-ium-1-yl]propanoic acid chloride] | 90 | 70 | 50 | 30 | 30 | 100 | 70 | 90 | 80
5 | COC(=O)C[n+]1ccc(-c2cnns2)cc1 [Compound A8, methyl 2-[4-(thiadiazol-5-yl)pyridin-1-ium-1-yl]acetate bromide] | 50 | 30 | 20 | 0 | 10 |  | 30 | 70 | 60
6 | O=C(O)C[n+]1ccc(-c2cnns2)cc1 [Compound A9, 2-[4-(thiadiazol-5-yl)pyridin-1-ium-1-yl]acetic acid chloride] |  | 0 |  | 0 | 20 | 30 |  | 0 | 10
7 | O=C(O)C[n+]1ccc(-c2nc(C(F)(F)F)cs2)cc1 [Compound A22] |  | 0 |  | 0 | 0 | 10 |  | 10 | 40
8 | CC(C(=O)O)[n+]1ccc(-c2ncns2)cc1 (stereo not drawn) [Compound A28] |  | 80 |  | 30 | 70 | 100 |  | 80 | 20
9 | Cn1nnc(-c2cc[n+](CS(=O)(=O)[O-])cc2)n1 [Compound A35] | 20 | 30 | 40 |  | 40 | 70 | 20 | 60 | 50
10 | O=C(O)CC[n+]1ccc(-c2nc(C(F)(F)F)co2)cc1 [Compound A45] | 20 | 0 | 10 | 0 | 0 | 0 | 50 | 0 | 
11 | CCOC(=O)C[n+]1ccc(-c2nncs2)cc1 [Compound A49] | 50 | 20 | 10 | 20 | 10 | 10 | 20 | 50 | 
12 | Cc1noc(-c2cc[n+](CCC(=O)O)cc2)n1 [Compound A50] | 90 | 80 | 20 | 50 | 30 | 40 | 40 | 70 | 
13 | CNC(=O)c1nc(-c2cc[n+](CCCS(=O)(=O)[O-])cc2)no1 [Compound A51] | 50 | 30 | 30 | 20 | 10 | 10 | 10 | 60 | 
14 | CNC(=O)c1cc(-c2cc[n+](CCCS(=O)(=O)[O-])cc2)on1 [Compound A52] | 20 | 10 | 10 | 10 | 10 | 20 | 10 | 30 | 
15 | O=S(=O)([O-])C[n+]1ccc(-c2csnn2)cc1 [Compound A54] | 10 | 0 | 0 | 0 | 20 | 20 | 20 | 20 | 
16 | O=C(O)CC[n+]1ccc(-c2ncns2)c(F)c1 [Compound A55] |  | 20 |  | 30 | 30 | 50 |  | 40 | 10
17 | O=C(O)CC[n+]1ccc(-c2ncns2)c(Cl)c1 [Compound A56] |  | 30 |  | 10 | 30 | 60 |  | 30 | 100
18 | CS(=O)(=O)c1c[n+](CCC(=O)O)ccc1-c1ncns1 [Compound A93, 3-[3-methylsulfonyl-4-(1,2,4-thiadiazol-5-yl)pyridin-1-ium-1-yl]propanoic acid bromide] |  | 30 | 40 | 10 | 30 | 60 | 30 | 30 | 30
